Test results from patent publication US7741327B2 (Hoffmann-La Roche Inc., priority 2008, dated 2010).

Target: T1, Recombinant human liver GK1 (GST-GK) (Homo sapiens, UniProt P35557)
T1 construct: made in house; host or cells: E. coli
T1 sequence (P35557 1-466 isoform P35557-2): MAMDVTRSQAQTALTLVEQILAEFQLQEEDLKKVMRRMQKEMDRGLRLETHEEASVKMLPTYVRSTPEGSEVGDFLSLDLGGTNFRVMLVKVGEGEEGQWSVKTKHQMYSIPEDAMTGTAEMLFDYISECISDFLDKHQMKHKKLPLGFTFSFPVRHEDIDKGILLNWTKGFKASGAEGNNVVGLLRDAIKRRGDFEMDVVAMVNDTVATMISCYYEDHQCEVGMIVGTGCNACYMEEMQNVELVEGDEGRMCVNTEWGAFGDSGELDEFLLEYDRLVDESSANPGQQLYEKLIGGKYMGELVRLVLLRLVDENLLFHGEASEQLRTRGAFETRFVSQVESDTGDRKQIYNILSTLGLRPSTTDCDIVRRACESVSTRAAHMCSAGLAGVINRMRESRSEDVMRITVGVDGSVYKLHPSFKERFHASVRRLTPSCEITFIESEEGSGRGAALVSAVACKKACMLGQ
Assay: In vitro glucokinase activity (G6PDH-coupled NADH assay)
Format: biochemical
Conditions: 30° C., 5 mM D-glucose, 10% DMSO
Procedure: Glucokinase In Vitro Assay Protocol: Glucokinase (GK) was assayed by coupling the production of glucose-6-phosphate to the generation of NADH with glucose-6-phosphate dehydrogenase (G6PDH, 0.75-1 kunits/mg; Boehringer Mannheim, Indianapolis, Ind.) from Leuconostoc mesenteroides as the coupling enzyme (Scheme 2).
Recombinant human liver GK1 was expressed in E. coli as a glutathione S-transferase fusion protein (GST-GK) [Liang et al, 1995] and was purified by chromatography over a glutathione-Sepharose 4B affinity column using the procedure provided by the manufacturer (Amersham Pharmacia Biotech, Piscataway, N.J.).
The assay was conducted at 30° C. in a flat bottom 96-well tissue culture plate from Costar (Cambridge, Mass.) with a final incubation volume of 120 μL. The incubation reaction contained the following: 25 mM Hepes buffer (pH 7.1), 25 mM KCl, 5 mM D-glucose, 1 mM ATP, 1.8 mM NAD, 2 mM MgCl2, 1 μM sorbitol-6-phosphate, 1 mM dithiothreitol, test drug or 10% dimethylsulfoxide, ˜7 units/ml G6PDH, and GK (see below). All organic reagents were >98% pure and were from Boehringer Mannheim with the exceptions of D-glucose and Hepes which were from Sigma Chemical Co, St Louis, Mo. Test compounds were dissolved in dimethylsulfoxide and were added to the incubation reaction minus GST-GK in a volume of 12 μL to yield a final dimethylsulfoxide concentration of 10%. This mix was pre-incubated in the temperature controlled chamber of a SPECTRAmax 250 microplate spectrophotometer (Molecular Devices Corporation, Sunnyvale, Calif.) for 10 min to allow temperature equilibrium and then the reaction was started by the addition of 20 μL GST-GK.
After addition of enzyme, the increase in optical density (OD) at 340 nm was monitored spectrophotometrically to determine the rate of change (OD340 per min). The GK activity (OD340/min) in control wells (10% DMSO minus GK activators) was compared with the activity in wells containing test GK activators, and the concentration of activator that produced a 50% increase in the activity of GK, i.e., the SC1.5, was calculated. The table below provides the in vitro glucokinase activity for the compounds in the Examples: […]

Compound | SC1.5 (concentration of activator that produced a 50% increase in the activity of GK)
CCO[C@H](C)C[C@@H](C(=O)Nc1ccn(CC(C)(C)O)n1)N1CC(Oc2cccc(Cl)c2Cl)=CC1=O [Example 94, (2S,4R)-2-[4-(2,3-Dichloro-phenoxy)-2-oxo-2,5-dihydro-pyrrol-1-yl]-4-ethoxy-pentanoic acid [1-(2-hydroxy-2-methyl-propyl)-1H-pyrazol-3-yl]-amide] | 0.772 µM
Cl.O=C(Nc1cnccn1)[C@H](CC1CCCCC1)N1CC(Oc2c(F)cccc2Cl)=CC1=O [Example 71, (S)-2-[4-(2-Chloro-6-fluoro-phenoxy)-2-oxo-2,5-dihydro-pyrrol-1-yl]-3-cyclohexyl-N-pyrazin-2-yl-propionamide Hydrochloride] | 0.058 µM
CCOc1ccc(F)c(OC2=CC(=O)N([C@@H](CC(C)C)C(=O)Nc3ccn(C[C@@H](O)CO)n3)C2)c1F [Example 117, (S)-2-[4-(3-Ethoxy-2,6-difluoro-phenoxy)-2-oxo-2,5-dihydro-pyrrol-1-yl]-4-methyl-pentanoic acid [1-((R)-2,3-dihydroxy-propyl)-1H-pyrazol-3-yl]-amide] | 0.034 µM
COC(=O)c1ccc(NC(=O)[C@H](CC2CCCC2)N2CC(OC)=CC2=O)nc1 [Example 10, 6-[(S)-3-Cyclopentyl-2-(4-methoxy-2-oxo-2,5-dihydro-pyrrol-1-yl)-propionylamino]-nicotinic acid methyl ester] | 1.855 µM
Cc1cccc(OC2=CC(=O)N([C@@H](CC(C)C)C(=O)Nc3ccn(CCO)n3)C2)c1F [Example 133, (S)-2-[4-(2-Fluoro-3-methyl-phenoxy)-2-oxo-2,5-dihydro-pyrrol-1-yl]-4-methyl-pentanoic acid [1-(2-hydroxy-ethyl)-1H-pyrazol-3-yl]-amide] | 0.249 µM
CC(C)C[C@@H](C(=O)Nc1ccn(C)n1)N1CC(Oc2cccc(Cl)c2Cl)=CC1=O.Cl [Example 78, (S)-2-[4-(2,3-Dichloro-phenoxy)-2-oxo-2,5-dihydro-pyrrol-1-yl]-4-methyl-pentanoic acid (1-methyl-1H-pyrazol-3-yl)-amide Hydrochloride] | 0.4 µM
Cn1ccc(NC(=O)[C@H](CC2CCCCC2)N2CC(Oc3c(F)cccc3Cl)=CC2=O)n1 [Example 68, (S)-2-[4-(2-Chloro-6-fluoro-phenoxy)-2-oxo-2,5-dihydro-pyrrol-1-yl]-3-cyclohexyl-N-(1-methyl-1H-pyrazol-3-yl)-propionamide] | 0.055 µM
COc1cccc(OC2=CC(=O)N(C(CC3CCOCC3)C(=O)Nc3ccn(C[C@@H](O)CO)n3)C2)c1Cl (stereo partly drawn) [Example 53, 2-[4-(2-Chloro-3-methoxy-phenoxy)-2-oxo-2,5-dihydro-pyrrol-1-yl]-N-[1-((R)-2,3-dihydroxy-propyl)-1H-pyrazol-3-yl]-3-(tetrahydro-pyran-4-yl)-propionamide] | 0.053 µM
Cl.O=C(Nc1ccn(C[C@@H](O)CO)n1)[C@H](CC1CCCCC1)N1CC(Oc2c(F)ccc(Cl)c2F)=CC1=O [Example 76, (S)-2-[4-(3-Chloro-2,6-difluoro-phenoxy)-2-oxo-2,5-dihydro-pyrrol-1-yl]-3-cyclohexyl-N-[1-((R)-2,3-dihydroxy-propyl)-1H-pyrazol-3-yl]-propionamide Hydrochloride] | 0.017 µM

Now from value to molecule:

SC1.5 (concentration of activator that produced a 50% increase in the activity of GK) | Compound
0.207 µM | CCOc1ccc(F)c(OC2=CC(=O)N([C@@H](CC(C)C)C(=O)Nc3cnc([C@H](O)CO)cn3)C2)c1F [Example 153, (S)-2-[4-(3-Ethoxy-2,6-difluoro-phenoxy)-2-oxo-2,5-dihydro-pyrrol-1-yl]-4-methyl-pentanoic acid [5-((S)-1,2-dihydroxy-ethyl)-pyrazin-2-yl]-amide]
0.158 µM | CC(C)C[C@@H](C(=O)Nc1cnccn1)N1CC(Oc2ccc(C[C@H](O)CO)cc2)=CC1=O [Example 244, (S)-2-{4-[4-((S)-2,3-Dihydroxy-propyl)-phenoxy]-2-oxo-2,5-dihydro-pyrrol-1-yl}-4-methyl-pentanoic acid pyrazin-2-ylamide]
0.239 µM | CC(C)C[C@@H](C(=O)Nc1ccn(C[C@@H](O)CO)n1)N1CC(Oc2ccccc2F)=CC1=O [Example 166, (S)-2-[4-(2-Fluoro-phenoxy)-2-oxo-2,5-dihydro-pyrrol-1-yl]-4-methyl-pentanoic acid [1-((R)-2,3-dihydroxy-propyl)-1H-pyrazol-3-yl]-amide]
0.234 µM | CC(C)C[C@@H](C(=O)Nc1ccn(C[C@@H](O)CO)n1)N1CC(Oc2cccc(N3CCCC3)c2F)=CC1=O [Example 142, (S)-2-[4-(2-Fluoro-3-pyrrolidin-1-yl-phenoxy)-2-oxo-2,5-dihydro-pyrrol-1-yl]-4-methyl-pentanoic acid [1-((R)-2,3-dihydroxy-propyl)-1H-pyrazol-3-yl]-amide]
0.073 µM | CC(C)(O)Cn1ccc(NC(=O)C(CC2CCOCC2)N2CC(Oc3ccccc3Br)=CC2=O)n1 (centres unmarked) [Example 261, 2-[4-(2-Bromo-phenoxy)-2-oxo-2,5-dihydro-pyrrol-1-yl]-N-[1-(2-hydroxy-2-methyl-propyl)-1H-pyrazol-3-yl]-3-(tetrahydro-pyran-4-yl)-propionamide]
2.59 µM | CC(C)C[C@@H](C(=O)Nc1cnccn1)N1CC(Oc2cccc(C(C)(C)O)c2F)=CC1=O [Example 247, (S)-2-{4-[2-Fluoro-3-(1-hydroxy-1-methyl-ethyl)-phenoxy]-2-oxo-2,5-dihydro-pyrrol-1-yl}-4-methyl-pentanoic acid pyrazin-2-ylamide]
0.012 µM | COc1cccc(OC2=CC(=O)N([C@@H](CC3CCCCC3)C(=O)Nc3ccn(CC(C)(C)O)n3)C2)c1 [Example 208, (S)-3-cyclohexyl-N-[1-(2-hydroxy-2-methyl-propyl)-1H-pyrazol-3-yl]-2-[4-(3-methoxy-phenoxy)-2-oxo-2,5-dihydro-pyrrol-1-yl]-propionamide]
0.496 µM | CC1(C)OC[C@@H](Cn2ccc(NC(=O)[C@H](Cc3ccccc3F)N3CC(Oc4ccccc4Cl)=CC3=O)n2)O1 [Example 182, (S)-2-[4-(2-chloro-phenoxy)-2-oxo-2,5-dihydro-pyrrol-1-yl]-N-[1-((R)-2,2-dimethyl-[1,3]dioxolan-4-yl-methyl)-1H-pyrazol-3-yl]-3-(2-fluoro-phenyl)-propionamide]
13.348 µM | CCN(C)C1=CC(=O)N([C@@H](CC2CCCCC2)C(=O)Nc2ccn(CC(C)(C)O)n2)C1 [Example 233, (S)-3-cyclohexyl-2-[4-(ethyl-methyl-amino)-2-oxo-2,5-dihydro-pyrrol-1-yl]-N-[1-(2-hydroxy-2-methyl-propyl)-1H-pyrazol-3-yl]-propionamide]
0.172 µM | C=Cc1cccc(OC2=CC(=O)N([C@@H](CC(C)C)C(=O)Nc3cnccn3)C2)c1F [Example 154, (S)-2-[4-(2-Fluoro-3-vinyl-phenoxy)-2-oxo-2,5-dihydro-pyrrol-1-yl]-4-methyl-pentanoic acid pyrazin-2-ylamide]
6.139 µM | COCC[C@@H](C(=O)Nc1ccn(C[C@@H](O)CO)n1)N1CC(Oc2ccccc2Cl)=CC1=O [Example 230, (S)-2-[4-(2-Chloro-phenoxy)-2-oxo-2,5-dihydro-pyrrol-1-yl]-N-[1-((R)-2,3-dihydroxy-propyl)-1H-pyrazol-3-yl]-4-methoxy-butyramide]
